Measured values from US8962529B2, “Substituted picolinic acids, salts and acid derivatives thereof, and use thereof as herbicides” (Bayer Cropscience AG, priority 2010, dated 2015).

Tests used:
Assay type in all cases: in vivo
[1] = tested on: Veronica persica; test: Pre-emergence herbicidal action against weed plants (greenhouse pot test); conditions: application rate 320 g/ha, scored visually after 3 weeks vs untreated controls, 100% = plants have died, 0% = like control plants
Excerpt: (§1) Seeds of mono- and dicotyledonous weed and crop plants are set out in wood fiber pots in sandy loam soil and covered with soil. The inventive compounds formulated in the form of wettable powders (WP) or as emulsion concentrates (EC) are then applied to the surface of the covering earth as an aqueous suspension or emulsion at a water application rate of 600 to 800 l/ha (converted) with addition of 0.2% wetting agent. After the treatment, the pots are placed in a greenhouse and kept under good growth conditions for the test plants. The damage to the test plants is scored visually after an experiment time of 3 weeks in comparison to untreated controls (herbicidal action in percent (%): 100% action=plants have died, 0% action=like control plants).

[2] = tested on: ABUTH; test: Post-emergence herbicidal action against weed plants (greenhouse pot test); conditions: one-leaf stage, application rate 320 g/ha, scored visually after about 3 weeks vs untreated controls, 100% = plants have died
Method: (§2) Seeds of mono- and dicotyledonous weed and crop plants are set out in wood fiber pots in sandy loam soil, covered with soil and cultivated in a greenhouse under good growth conditions. 2 to 3 weeks after sowing, the trial plants are treated at the one-leaf stage. The inventive compounds formulated in the form of wettable powders (WP) or as emulsion concentrates (EC) are then sprayed onto the green plant parts as an aqueous suspension or emulsion with a water application rate of 600 to 800 l/ha (converted) with addition of 0.2% wetting agent. After the trial plants have stood in the greenhouse under optimal growth conditions for about 3 weeks, the action of the preparations is scored visually in comparison to untreated controls (herbicidal action in percent (%): 100% action=plants have died, 0% action=like control plants).

[3] = tested on: Veronica persica; test: as above; conditions: one-leaf stage, application rate 320 g/ha, scored visually after about 3 weeks vs untreated controls, 100% = plants have died
Method: as §2

[4] = tested on: Amaranthus retroflexus; test: Pre-emergence herbicidal action against weed plants (greenhouse pot test); conditions: application rate 320 g/ha, scored visually after 3 weeks vs untreated controls, 100% = plants have died, 0% = like control plants
Excerpt: as §1

[5] = tested on: Ipomoea purpurea; test: Post-emergence herbicidal action against weed plants (greenhouse pot test); conditions: one-leaf stage, application rate 320 g/ha, scored visually after about 3 weeks vs untreated controls, 100% = plants have died
Method: as §2

COC(=O)c1nc(-c2ccc(Cl)c(C3CO3)c2F)cc(N)c1Cl (centres unmarked) [Example 9-618]
herbicidal action in percent, VERPE [1]: 100%
herbicidal action in percent, ABUTH [2]: 80%
herbicidal action in percent, VERPE [3]: 90%

COC(=O)c1nc(-c2ccc(Cl)c(C3COC(C)(C)O3)c2F)cc(N)c1Cl (centres unmarked) [Example 9-842]
herbicidal action in percent, AMARE [4]: 90%
herbicidal action in percent, VERPE [1]: 100%
herbicidal action in percent, PHBPU [5]: 90%
herbicidal action in percent, ABUTH [2]: 80%
herbicidal action in percent, VERPE [3]: 100%
